Results from patent publication US20030181441A1, “TACE INHIBITORS” (priority 1998, published 2003).

Tests used:
Type in all cases: biochemical
TACE = TACE (Homo sapiens, UniProt P78536); assay: Recombinant TNFα converting enzyme (TACE) activity, fluorescent quenched substrate; settings: for MMP-1/TACE IC50 selectivity ratio: ratio of MMP-1 and TACE IC50 values
Text: Method for the Evaluation of Recombinant TNFα Converting Enzyme Activity.
Preparation of Recombinant TACE:
A DNA fragment coding for the signal sequence, prodomain and catalytic domain of TACE (amino acids […]), was amplified by polymerase chain reaction using a human lung cDNA library as a template. The amplified fragment was cloned into pFastBac vector. The DNA sequence of the insert was confirmed for both the strands. A bacmid prepared using pFastBac in E. coli DH10Bac was transfected into SF9 insect cells. The virus particles were amplified to P1, P2, P3 stages. The P3 virus was infected into both Sf9 and High Five insect cells and grown at 27° C. for 48 hours. The medium was collected and used for assays and further purification.
Preparation of Fluorescent Quenched Substrate:
A model peptidic TNF-α substrate (LY-LeucineAlanineGlutamineAlanineValine-ArginineSerine-SerineLysine(CMTR)-Arginine (LY=Lucifer Yellow; CMTR=5-carboxytetramethyl Rhodamine)) was prepared and the concentration estimated by absorbance at 560 nm (E560, 60,000 M-1CM-1) according to the method of Geoghegan, K F, “Improved method for converting an unmodified peptide to an energy-transfer substrate for a proteinase.” Bioconjugate Chem. 7, 385-391 (1995). This peptide encompasses the cleavage cite on pro-TNF which is cleaved in vivo by TACE.
The reaction, carried out in a 96 well plate (Dynatech), was comprised of 70 μl of buffer solution (25 mM Hepes-HCl, pH 7.5, plus 20 uM ZnCl2), 10 μl of 100 μM fluorescent quenched substrate, 10 μl of a DMSO (5%) solution of test compound, and an amount of r-TACE enzyme which will cause 50% cleavage in 60 minutes—in a total volume of 100 μl. The specificity of the enzyme cleavage at the amide bond between alanine and valine was verified by HPLC and mass spectrometry. Initial rates of cleavage were monitored by measuring the rate of increase in fluorescence at 530 nm (excitation at 409 nm) over 30 minutes. The experiment was controlled as follows: 1) for background fluorescence of substrate; 2) for fluorescence of fully cleaved substrate; 3) for fluorescence quenching or augmentation from solutions containing test compound.
The rates from the non-test compound containing “control” reactions were averaged to establish the 100% value. The rate of reaction in the presence of test compound was compared to that in the absence of compound, and tabulated as “percent of non-test compound containing control. The results were plotted as “% of control” vs. the log of compound concentration and a half-maximal point or IC50 value determined. The IC50 for the above assay is a measure of the inhibition of the TNF-α proteolytic activity of TACE. Blockage of binding of TNF-α to TACE as used herein is as described in U.S. Pat. No. 5,830,742, issued Nov. 3, 1998.

MMP-1 = biological target: T1, MMP-1 (Homo sapiens, UniProt P03956); assay: Inhibition of Human Collagenase (MMP-1), fluorescence assay
T1 sequence (P03956 100-469): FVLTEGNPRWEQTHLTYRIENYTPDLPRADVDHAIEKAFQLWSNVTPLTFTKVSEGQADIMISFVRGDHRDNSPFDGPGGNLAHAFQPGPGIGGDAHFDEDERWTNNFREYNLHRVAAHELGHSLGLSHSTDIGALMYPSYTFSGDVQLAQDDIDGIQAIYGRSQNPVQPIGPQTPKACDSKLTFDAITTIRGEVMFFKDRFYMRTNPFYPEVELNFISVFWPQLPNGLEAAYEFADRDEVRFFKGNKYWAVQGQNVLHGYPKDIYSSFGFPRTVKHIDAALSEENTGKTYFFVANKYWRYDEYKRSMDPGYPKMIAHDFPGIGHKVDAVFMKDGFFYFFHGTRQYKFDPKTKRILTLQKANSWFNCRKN
Method: Inhibition of Human Collagenase (MMP-1)
Human recombinant collagenase is activated with trypsin using the following ratio: 10 μg trypsin per 100 μg of collagenase. The trypsin and collagenase are incubated at room temperature for 10 minutes then a five fold excess (50 μg/10 μg trypsin) of soybean trypsin inhibitor is added.
10 mM stock solutions of inhibitors are made up in dimethyl sulfoxide and then diluted using the following Scheme:
Twenty-five microliters of each concentration is then added in triplicate to appropriate wells of a 96 well microfluor plate. The final concentration of inhibitor will be a 1:4 dilution after addition of enzyme and substrate. Positive controls (enzyme, no inhibitor) are set up in wells D1-D6 and blanks (no enzyme, no inhibitors) are set in wells D7-D12.
Collagenase is diluted to 400 ng/ml and 25 μl is then added to appropriate wells of the microfluor plate. Final concentration of collagenase in the assay is 100 ng/ml.
Substrate (DNP-Pro-Cha-Gly-Cys(Me)-His-Ala-Lys(NMA)-NH2) is made as a 5 mM stock in dimethyl sulfoxide and then diluted to […] in assay buffer. The assay is initiated by the addition of 50 μl substrate per well of the microfluor plate to give a final concentration of […] Fluorescence readings (360 nm excitation, 460 nm emission) were taken at time 0 and then at 20 minute intervals. The assay is conducted at room temperature with a typical assay time of 3 hours.
Fluorescence vs time is then plotted for both the blank and collagenase containing samples (data from triplicate determinations is averaged). […] The zero time is used as a blank for each compound at each concentration and these values are subtracted from the 120 minute data. Data is plotted as inhibitor concentration vs % control (inhibitor fluorescence divided by fluorescence of collagenase alone×100). IC50's are determined from the concentration of inhibitor that gives a signal that is 50% of the control.
If IC50's are reported to be <0.03 μM then the inhibitors are assayed at concentrations of 0.3 μM, 0.03 μM, […].

MMP-13 = MMP-13 (Homo sapiens, UniProt P45452); assay: Inhibition of MMP-13, fluorescence assay
Method: Human recombinant MMP-13 is activated with 2 mM APMA (p-aminophenyl mercuric acetate) for 1.5 hours, at 37° C. and is diluted to […] in assay buffer (50 mM Tris, pH 7.5, 200 mM sodium chloride, 5 mM calcium chloride, 20 μM zinc chloride, 0.02% brij). Twenty-five microliters of diluted enzyme is added per well of a 96 well microfluor plate. The enzyme is then diluted in a 1:4 ratio in the assay by the addition of inhibitor and substrate to give a final concentration in the assay of […].
10 mM stock solutions of inhibitors are made up in dimethyl sulfoxide and then diluted in assay buffer as per the inhibitor dilution scheme for inhibition of human collagenase (MMP-1): Twenty-five microliters of each concentration is added in triplicate to the microfluor plate. The final concentrations in the assay are 30 μM, 3 μM, 0.3 μM, and 0.03 μM.
Substrate (Dnp-Pro-Cha-Gly-Cys(Me)-His-Ala-Lys(NMA)—NH2) is prepared as for inhibition of human collagenase (MMP-1) and […] is added to each well to give a final assay concentration of 10 μM. Fluorescence readings (360 nm excitation; 450 emission) are taken at time 0 and every 5 minutes for 1 hour.
Positive controls consist of enzyme and substrate with no inhibitor and blanks consist of substrate only.
IC50's are determined as per inhibition of human collagenase (MMP-1). If IC50's are reported to be less than 0.03 μM, inhibitors are then assayed at final concentrations of 0.3 μM, 0.03 μM, 0.003 μM and 0.0003 μM.

Sequence of TACE (P78536 223-474): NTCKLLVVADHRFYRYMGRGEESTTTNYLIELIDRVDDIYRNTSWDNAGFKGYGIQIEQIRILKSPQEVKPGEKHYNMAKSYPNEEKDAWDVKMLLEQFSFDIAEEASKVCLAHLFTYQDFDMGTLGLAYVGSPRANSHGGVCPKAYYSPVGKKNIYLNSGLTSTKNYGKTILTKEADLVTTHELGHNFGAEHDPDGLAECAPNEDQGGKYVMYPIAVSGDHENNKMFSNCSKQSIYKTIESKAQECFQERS

SMILES	IC50 (TACE) [nM]	MMP-1/TACE IC50 selectivity ratio (TACE)	IC50 (MMP-1) [nM]	IC50 (MMP-13) [nM]
C[C@@H]1O[C@@H](C)CN(S(=O)(=O)c2ccc(OCc3ccncc3)cc2)[C@H]1C(=O)NO	12	167	2000	6
Cc1ccc(C)c(COc2ccc(S(=O)(=O)N3C[C@H](C)O[C@@H](C)[C@@H]3C(=O)NO)cc2)c1	10	350	3500	88
Cc1ccccc1COc1ccc(S(=O)(=O)N2CCN[C@@H](C)[C@@H]2C(=O)NO)cc1	19	558	10600	18
C[C@@H]1NCCN(S(=O)(=O)c2ccc(OCc3ccccc3)cc2)[C@H]1C(=O)NO	25	299	7480	8

Compounds with a lower IC50 (TACE), results first:

IC50 (TACE) [nM]	MMP-1/TACE IC50 selectivity ratio (TACE)	IC50 (MMP-1) [nM]	IC50 (MMP-13) [nM]	SMILES
7.4	46.6	345	5	CC1(C)[C@H](C(=O)NO)N(S(=O)(=O)c2ccc(OCc3ccc(F)cc3)cc2)CC[S+]1[O-] (some centres unmarked)
7.2	42.4	305	1.4	CC1(C)[C@H](C(=O)NO)N(S(=O)(=O)c2ccc(OCc3ccc(F)cc3)cc2)CCS1(=O)=O
6.2	258	1600	3	CC(=O)N1CCN(S(=O)(=O)c2ccc(OCc3ccccc3C)cc2)[C@@H](C(=O)NO)[C@@H]1C
4.5	311	1400	1	C[C@@H]1O[C@@H](CO)CN(S(=O)(=O)c2ccc(OCc3ccc(F)cc3)cc2)[C@H]1C(=O)NO
